From US20250255882A1, “TREATMENT OF CARDIAC CONDITION RELATED COGNITIVE DYSFUNCTION” (The Trustees of Columbia University in the City of New York, priority 2024, published 2025)

How the values were obtained:
SNARE signaling pathway = experiment: immunoblots of SNAP25, VAMP8, SYT2 and CPLX3 in hippocampi; type: in vivo, mouse; details: hippocampi of treated MI mice
From the text: FIGS. 7A-7E illustrate altered synaptic protein expression in heart failure. […] The color map represents fold change of proteins (log 2 scale). […] FIGS. 7B and 7C are immunoblots showing total expression of SNAP25, VAMP8, SYT2 and CPLX3, normalized to GAPDH in the hippocampi of controls (n=4) and individuals with HF (n=9). Individual values are shown with the mean±s.e.m. (t-test *P<0.05, control versus individuals with HF). […] Individual values are shown with the mean #s.e.m. […] Data are derived from biologically independent samples. All statistical tests were two sided.
Based on the proteome data in the setting of defective Ca^2+ regulation, four proteins were selected for further study. These four proteins were from the most enriched synaptic transmission pathways that are regulated by Ca^2+, located near the synaptic membranes, involved in learning and memory process, and involved in neurotransmission as potential downstream signals of leaky RyR2. These selections included synaptosomal-associated protein 25 (SNAP25), vesicle-associated membrane protein 8 (VAMP8), synaptogamin-2 (SYT2) and complexin3 (CPLX3). We analyzed their protein expression levels by immunoblot in individuals with HF, and in SHAM and MI mice with or without each of the aforementioned treatments. […]

TGF-β pathway = experiment: immunoblots of TGF-β, phosphorylated SMAD3 and NOX2 binding to RyR2 in hippocampi; type: in vivo, mouse; details: hippocampi of treated MI mice
From the text: FIG. 12A includes immunoblots showing expressing levels of TGF-β, phosphorylated SMAD3, total SMAD3, and NOX2 binding to RyR2 in the hippocampi of controls (n=4) and HF patients (n=9). FIG. 12B includes bar graphs depicting the ratio of TGF-β expression normalized to GAPDH, phosphorylated SMAD3 to total SMAD3 and NOX2 binding to RyR2 (IP RyR2). The same quantity of proteins was loaded on two separate gels and blotted separately for SMAD3 and pSMAD3. Individual values are shown with mean±SEM (t-test * p<0.05, Controls vs. HF patients). […] FIG. 12D includes bar graphs depicting the ratio of TGF-β expression normalized to GAPDH, phosphorylated SMAD3 to total SMAD3 and NOX2 binding to RyR2 (IP RyR2). The same quantity of proteins was loaded on two separate gels and blotted separately for SMAD3 and pSMAD3. Individual values are shown with mean±SEM. […] All statistical tests were two-sided. Data are derived from biologically independent samples.
TGF-β has been implicated in CNS disorders including Alzheimer's disease.

MI mice = experiment: long-term potentiation (fEPSPs) in hippocampal slices; type: in vivo, mouse; details: slices from treated MI mice; MI decreased LTP versus SHAM
Method: FIG. 4A is a schematic representation of a hippocampal brain slice for LTP experiments and the positioning of the stimulating and recording electrodes.
Field excitatory postsynaptic potentials (fEPSPs) were evaluated at the Schaffer collateral using a bipolar electrode placed at the CA3 and recording at the CA1 (FIG. 4A). […] Importantly, MI and treatment with the various compounds after MI had no effect on basal synaptic transmission determined by the input-output curves (I-O; P=0.5; FIG. 4D).

[1] = tested on: mouse model of HF (myocardial infarction, MI); experiment: open field test and elevated plus maze (EPM) test; type: in vivo; details: MI mice, treated
From the text: FIGS. 2A-2G illustrate a mouse model of heart failure (myocardial infarction) that is associated with cognitive dysfunction. […] One-way analysis of variance (ANOVA) was used to compare the difference between the six groups in FIGS. 2B, 2C, 2E and 2F. Tukey's test was used for multiple comparisons; two-way ANOVA was used in FIG. 2D. […] All statistical tests were two sided with the data derived from biologically independent samples.
Because of the complexity of the clinical manifestation of HF patients, the mouse model of HF (myocardial infarction, MI) was used with reduced ejection fraction to evaluate the mechanisms of CD. The open field test and elevated plus maze (EPM) test were used to evaluate the behavioral phenotypes, and spontaneous exploratory activity in the mice. In the open field test, mice were placed at the center of a chamber and allowed to explore for 6 min. […] In the EPM test, MI mice spent […] time in the open arms of the EPM (FIG. 2B) compared to SHAM (0.22±0.04 versus 0.14±0.02; P<0.05). […] As a control, the effects of a Rycal®, ARM036, was studied.

hippocampal RyR2 [2] = target: T1, hippocampal RyR2 (Mus musculus, UniProt E9Q401); experiment: SDS-PAGE analysis of modified RyR2 and calstabin2 immunoprecipitated from hippocampal RyR2 complex; type: in vivo; details: hippocampi of treated MI mice
T1 construct: Hippocampal RyR2 was immunoprecipitated and immunoblotted to detect PTMs; from tissue; host or cells: mouse hippocampus (SHAM / MI mice, treated in vivo)
Method: FIGS. 3A-3G illustrate a mouse model of heart failure that is associated with leaky hippocampal RyR2. FIG. 3A is a cryogenic electron microscopy structure of RyR2 (gray, top and side view) showing the location of the Ser2808 in the RY3&4 phosphorylation domain (magenta) and calstabin2 (cyan). RyR2 PKA phosphorylation shifted the channel toward a primed state (yellow) 50.
(§1) PTMs and functional abnormalities of neuronal RyR2 in HF hippocampal samples from MI mice were then evaluated and compared them to SHAM. Hippocampal RyR2 was immunoprecipitated and immunoblotted to detect PTMs.

hippocampal RyR2 [3] = target: T1, hippocampal RyR2; experiment: single-channel recordings of RyR2 incorporated in planar lipid bilayers; type: in vivo; details: hippocampal RyR2 from treated MI mice; for RyR2 mean closed time / RyR2 mean open time: versus untreated MI
Method: FIG. 3E are graphs of RyR2 Po, To and Tc in the same groups as FIG. 3D. FIG. 3F is a graph of Ca^2+ leak measured in microsomes from mouse hippocampi of the same groups as FIG. 3D. […] Individual values are shown with the mean±s.e.m. […] Data are derived from biologically independent samples. All statistical tests were two sided.
as §1

[4] = tested on: Ca2+-dependent enzymes, Tau and amyloid beta pathway; experiment: Alzheimer's disease-like signaling in hippocampal samples; type: in vivo, mouse; details: hippocampi of treated MI mice
From the text: Abnormal Ca^2+ regulation can contribute to the activation of Ca^2+-dependent enzymes such as AMP-activated protein kinase (AMPK), cyclin-dependent kinase 5 (CDK5) and enhanced calpain activity. Activation of these enzymes in response to elevated cytosolic Ca^2+ levels are upstream signals of both pTau and amyloid deposits in Alzheimer's disease brains and could be a major factor in the CD observed in HF. […] We also observed an increase in p25 expression, the neurotoxic activator of CDK5, which plays an important role in amyloid precursor protein processing in AD.

T1 sequence (E9Q401 whole entry): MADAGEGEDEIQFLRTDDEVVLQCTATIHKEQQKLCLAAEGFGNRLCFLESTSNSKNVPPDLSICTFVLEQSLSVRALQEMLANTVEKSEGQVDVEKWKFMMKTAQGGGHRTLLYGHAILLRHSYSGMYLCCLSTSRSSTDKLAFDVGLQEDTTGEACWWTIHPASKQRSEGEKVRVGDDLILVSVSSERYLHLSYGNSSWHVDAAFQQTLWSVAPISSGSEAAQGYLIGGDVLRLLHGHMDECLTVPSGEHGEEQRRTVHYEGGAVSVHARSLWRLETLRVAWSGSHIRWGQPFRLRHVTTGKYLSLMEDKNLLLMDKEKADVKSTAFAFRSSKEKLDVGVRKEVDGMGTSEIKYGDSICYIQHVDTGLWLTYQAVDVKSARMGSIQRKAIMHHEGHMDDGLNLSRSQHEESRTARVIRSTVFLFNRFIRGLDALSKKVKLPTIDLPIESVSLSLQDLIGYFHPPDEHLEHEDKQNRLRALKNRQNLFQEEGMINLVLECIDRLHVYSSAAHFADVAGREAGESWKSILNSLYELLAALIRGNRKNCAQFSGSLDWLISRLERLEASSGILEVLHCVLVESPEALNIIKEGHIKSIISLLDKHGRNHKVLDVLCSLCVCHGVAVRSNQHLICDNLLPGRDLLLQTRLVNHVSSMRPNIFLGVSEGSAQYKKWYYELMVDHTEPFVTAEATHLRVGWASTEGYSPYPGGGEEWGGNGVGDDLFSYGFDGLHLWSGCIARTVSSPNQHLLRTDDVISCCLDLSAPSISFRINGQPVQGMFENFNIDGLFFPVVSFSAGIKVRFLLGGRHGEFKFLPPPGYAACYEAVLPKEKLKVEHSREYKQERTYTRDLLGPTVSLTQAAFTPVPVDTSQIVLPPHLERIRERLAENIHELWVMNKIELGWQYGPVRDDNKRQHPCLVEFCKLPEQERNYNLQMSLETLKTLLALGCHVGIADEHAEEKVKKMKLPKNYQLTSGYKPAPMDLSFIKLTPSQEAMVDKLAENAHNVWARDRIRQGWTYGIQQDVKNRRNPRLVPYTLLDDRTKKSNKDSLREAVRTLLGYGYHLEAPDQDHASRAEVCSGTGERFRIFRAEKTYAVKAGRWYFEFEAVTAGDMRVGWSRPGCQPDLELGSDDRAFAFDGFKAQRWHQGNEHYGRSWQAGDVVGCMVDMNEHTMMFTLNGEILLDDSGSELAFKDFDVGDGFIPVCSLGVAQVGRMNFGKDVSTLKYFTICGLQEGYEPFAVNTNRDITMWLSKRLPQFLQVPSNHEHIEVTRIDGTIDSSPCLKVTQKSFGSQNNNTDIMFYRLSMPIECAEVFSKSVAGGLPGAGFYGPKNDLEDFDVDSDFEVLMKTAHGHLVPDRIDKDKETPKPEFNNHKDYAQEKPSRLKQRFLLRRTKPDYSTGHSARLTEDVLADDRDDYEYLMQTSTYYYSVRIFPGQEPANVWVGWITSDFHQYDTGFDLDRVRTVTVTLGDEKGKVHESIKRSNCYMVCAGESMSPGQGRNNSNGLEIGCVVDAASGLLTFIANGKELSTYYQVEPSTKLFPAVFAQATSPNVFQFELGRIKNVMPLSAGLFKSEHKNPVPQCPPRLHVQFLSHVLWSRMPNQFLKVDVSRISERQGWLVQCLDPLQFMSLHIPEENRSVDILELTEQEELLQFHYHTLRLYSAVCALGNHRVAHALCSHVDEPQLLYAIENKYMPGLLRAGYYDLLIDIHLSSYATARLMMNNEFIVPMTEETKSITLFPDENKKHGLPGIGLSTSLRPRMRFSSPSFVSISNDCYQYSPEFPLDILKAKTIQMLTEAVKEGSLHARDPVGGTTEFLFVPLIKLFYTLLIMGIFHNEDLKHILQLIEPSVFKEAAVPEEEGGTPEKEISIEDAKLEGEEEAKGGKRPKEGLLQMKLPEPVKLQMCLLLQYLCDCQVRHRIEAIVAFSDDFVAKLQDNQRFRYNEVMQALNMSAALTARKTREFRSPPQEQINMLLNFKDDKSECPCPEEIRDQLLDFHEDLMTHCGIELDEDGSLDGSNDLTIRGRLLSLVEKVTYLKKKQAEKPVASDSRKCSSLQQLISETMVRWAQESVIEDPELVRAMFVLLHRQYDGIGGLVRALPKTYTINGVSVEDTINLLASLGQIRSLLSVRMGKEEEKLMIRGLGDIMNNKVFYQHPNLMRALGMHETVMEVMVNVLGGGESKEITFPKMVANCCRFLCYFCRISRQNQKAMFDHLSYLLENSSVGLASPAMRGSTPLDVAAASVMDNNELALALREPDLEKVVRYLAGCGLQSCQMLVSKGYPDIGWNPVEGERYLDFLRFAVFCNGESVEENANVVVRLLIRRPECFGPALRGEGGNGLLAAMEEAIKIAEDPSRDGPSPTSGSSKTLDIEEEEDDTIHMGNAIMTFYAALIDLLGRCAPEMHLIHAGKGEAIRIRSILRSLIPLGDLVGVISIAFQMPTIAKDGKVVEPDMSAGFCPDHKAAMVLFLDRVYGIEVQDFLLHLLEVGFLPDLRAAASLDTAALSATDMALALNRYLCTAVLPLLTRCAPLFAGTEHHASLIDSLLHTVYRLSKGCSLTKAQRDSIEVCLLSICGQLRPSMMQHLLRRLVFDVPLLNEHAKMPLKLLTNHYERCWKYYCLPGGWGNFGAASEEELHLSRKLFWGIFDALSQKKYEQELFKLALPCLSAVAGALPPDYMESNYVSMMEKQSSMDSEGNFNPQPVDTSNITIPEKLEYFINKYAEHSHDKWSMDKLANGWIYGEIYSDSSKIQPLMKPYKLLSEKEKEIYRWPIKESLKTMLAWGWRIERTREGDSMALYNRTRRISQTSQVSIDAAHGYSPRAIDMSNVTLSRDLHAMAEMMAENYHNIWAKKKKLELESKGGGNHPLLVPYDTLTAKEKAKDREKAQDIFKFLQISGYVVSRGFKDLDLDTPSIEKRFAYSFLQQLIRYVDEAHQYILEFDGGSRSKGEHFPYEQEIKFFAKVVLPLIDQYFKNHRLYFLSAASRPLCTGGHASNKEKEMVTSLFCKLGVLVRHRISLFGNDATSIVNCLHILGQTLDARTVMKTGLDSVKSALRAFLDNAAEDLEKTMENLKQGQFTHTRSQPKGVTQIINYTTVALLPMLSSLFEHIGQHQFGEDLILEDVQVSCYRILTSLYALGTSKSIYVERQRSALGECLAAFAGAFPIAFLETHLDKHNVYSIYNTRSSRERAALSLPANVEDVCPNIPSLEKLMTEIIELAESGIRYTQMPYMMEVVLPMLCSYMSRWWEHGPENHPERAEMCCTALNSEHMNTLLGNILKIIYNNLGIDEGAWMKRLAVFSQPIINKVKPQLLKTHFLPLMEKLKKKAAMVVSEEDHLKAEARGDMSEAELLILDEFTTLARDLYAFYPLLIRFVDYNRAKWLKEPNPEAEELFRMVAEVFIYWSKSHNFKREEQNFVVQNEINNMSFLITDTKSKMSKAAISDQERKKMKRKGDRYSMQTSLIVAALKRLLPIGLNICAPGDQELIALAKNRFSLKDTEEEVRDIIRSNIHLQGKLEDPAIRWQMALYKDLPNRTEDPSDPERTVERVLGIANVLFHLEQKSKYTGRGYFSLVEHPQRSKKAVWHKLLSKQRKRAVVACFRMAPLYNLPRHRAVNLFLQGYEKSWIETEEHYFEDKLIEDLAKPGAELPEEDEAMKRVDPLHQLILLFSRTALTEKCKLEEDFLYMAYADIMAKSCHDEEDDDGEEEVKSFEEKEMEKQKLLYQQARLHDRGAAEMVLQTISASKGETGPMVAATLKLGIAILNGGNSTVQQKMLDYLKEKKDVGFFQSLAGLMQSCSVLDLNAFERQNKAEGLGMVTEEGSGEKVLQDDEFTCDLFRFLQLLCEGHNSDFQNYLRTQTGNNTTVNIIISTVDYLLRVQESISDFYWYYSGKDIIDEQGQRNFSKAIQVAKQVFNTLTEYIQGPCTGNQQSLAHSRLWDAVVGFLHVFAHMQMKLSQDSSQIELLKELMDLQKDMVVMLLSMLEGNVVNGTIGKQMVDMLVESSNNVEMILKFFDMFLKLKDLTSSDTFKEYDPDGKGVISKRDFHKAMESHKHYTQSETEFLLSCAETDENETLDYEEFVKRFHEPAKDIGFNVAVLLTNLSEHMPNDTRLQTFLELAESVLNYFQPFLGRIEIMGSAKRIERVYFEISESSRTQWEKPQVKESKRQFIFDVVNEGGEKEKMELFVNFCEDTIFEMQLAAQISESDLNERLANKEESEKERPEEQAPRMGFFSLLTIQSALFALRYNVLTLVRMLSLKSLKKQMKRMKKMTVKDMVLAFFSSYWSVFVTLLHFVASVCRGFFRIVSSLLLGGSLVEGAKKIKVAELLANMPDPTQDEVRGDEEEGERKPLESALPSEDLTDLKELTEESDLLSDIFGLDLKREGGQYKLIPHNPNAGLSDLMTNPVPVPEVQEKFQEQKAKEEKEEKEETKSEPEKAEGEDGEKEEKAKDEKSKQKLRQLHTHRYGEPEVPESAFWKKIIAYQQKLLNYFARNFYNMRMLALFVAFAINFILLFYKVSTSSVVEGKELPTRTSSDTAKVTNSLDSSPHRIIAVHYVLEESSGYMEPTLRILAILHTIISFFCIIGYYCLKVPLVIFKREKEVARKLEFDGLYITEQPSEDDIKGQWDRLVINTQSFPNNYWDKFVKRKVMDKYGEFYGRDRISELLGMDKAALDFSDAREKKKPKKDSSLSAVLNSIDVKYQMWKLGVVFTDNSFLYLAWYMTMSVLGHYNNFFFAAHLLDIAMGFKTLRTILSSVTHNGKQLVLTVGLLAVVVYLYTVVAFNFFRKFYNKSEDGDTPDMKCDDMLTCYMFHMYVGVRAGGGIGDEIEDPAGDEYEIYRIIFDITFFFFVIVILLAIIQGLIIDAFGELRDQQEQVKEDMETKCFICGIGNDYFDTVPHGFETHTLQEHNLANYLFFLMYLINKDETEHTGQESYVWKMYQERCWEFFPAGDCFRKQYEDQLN
T1 sequence (Q9Z2I2 whole entry partner): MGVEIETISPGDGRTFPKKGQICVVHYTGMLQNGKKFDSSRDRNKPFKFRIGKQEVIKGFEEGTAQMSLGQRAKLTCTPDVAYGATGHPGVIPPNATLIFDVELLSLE

Compound | expression of SNAP25, VAMP8, SYT2 and CPLX3 (SNARE signaling pathway) | NOX2 binding to hippocampal RyR2 (TGF-β pathway) | TGF-β levels (TGF-β pathway) | phosphorylation of SMAD3 (TGF-β pathway) | LTP (hippocampal synaptic plasticity) (MI mice) | abnormal behaviors in open field test (time center versus periphery) and EPM test (time open-arm versus closed-arm) [1] | RyR2 nitrosylation (hippocampal RyR2 [2]) | RyR2 oxidation (hippocampal RyR2 [2]) | RyR2 phosphorylation (hippocampal RyR2 [2]) | calstabin2 binding to RyR2 (hippocampal RyR2 [2]) | RyR2 mean closed time (hippocampal RyR2 [3]) | RyR2 mean open time (hippocampal RyR2 [3]) | changes in AMPK, GSK3B, CaMKII, Tau phosphorylation, p25, BACE1 and βCTF [4] | RyR2 open probability (Po) (hippocampal RyR2 [3]; 150 nM Ca2+ cis, MI 0.17%±0.04%)
Fc1ccc(Cl)cc1-c1nc(Nc2ccncc2)c2nccnc2n1 [SD-208] | restored the expression of these proteins to the control levels | significantly reduced | significantly reduced | significantly reduced | prevented MI-induced LTP deficits | prevented | significantly decreased | significantly decreased | significantly decreased | enabled rebinding of calstabin2 | increased | decreased | prevented/attenuated | 
CC(C)NCC(O)COc1cccc2ccccc12 (centres unmarked) [propranolol] | restored the expression of these proteins to the control levels | significantly reduced | significantly reduced | significantly reduced | prevented MI-induced LTP deficits | prevented | significantly reduced |  | significantly reduced | restored calstabin2 binding | increased | decreased | prevented/attenuated | 0.018%±0.020%
